The source of these data is EPA's ToxRefDB 2.

In series [1] the test system is mouse. The conditions noted are these: Carcinogenicity, b6c3f1, Oral, Feed, dose end: 100 week, group: systemic.
The subject of series [2] is rat. The conditions noted are these: Carcinogenicity, fischer, Oral, Feed, dose end: 107 week, group: systemic.
Series [3] concerns mouse. The conditions noted are these: Carcinogenicity; other; Oral; Feed; dose end: 18 month; group: systemic; systemic / clinical chemistry / alanine aminotransferase (alt/sgpt) / alanine aminotransferase (alt/sgpt) + systemic / clinical chemistry / ….
The test system of series [4] is rat. The conditions noted are these: Subchronic oral toxicity in rodents, other, Feed, dose end: 3 month, group: systemic.
Series [5] deals with dog. To be noted: Chronic toxicity; beagle; Oral; Feed; dose end: 52 week; group: systemic; systemic / in life observation / body weight / body weight gain + systemic / in life observation / clinical signs / abnormal gait + systemic….
Series [6] relates to dog. To be noted: Subchronic oral toxicity in nonrodent, beagle, Feed, dose end: 90 day, group: systemic.
The test system of series [7] is rat. The conditions noted are these: Multigenerational reproductive toxicity study, sprague dawley, Oral, Feed, dose end: 2 generation.
Series [8] deals with rat. The conditions noted are these: Combined chronic toxicity/carcinogenicity, other, Oral, Feed, dose end: 24 month, group: systemic.
In series [9] the test system is rat. To be noted: Prenatal developmental toxicity study, other, Oral, Gavage/Intubation, dose end: 15 GD.
Series [10] deals with rat. To be noted: Peri- and post-natal toxicity study (Segment III); sprague dawley; Injection; Subcutaneous; dose end: 22 PND; group: parental; systemic / in life observation / body weight / body weight.
Series [11] has as its system rat. The conditions noted are these: Prenatal developmental toxicity study; sprague dawley; Injection; Subcutaneous; dose end: 20 GD; group: maternal; reproductive / reproductive performance / premature delivery / premature delivery + systemic / in life observation / body weight / body ….
Series [12] deals with rat. The conditions noted are these: Neurotoxicity screening battery, sprague dawley, Injection, Subcutaneous, dose end: 22 week, group: cannot be grouped.
Series [13] relates to mouse. To be noted: Subchronic oral toxicity in rodents, b6c3f1, Gavage/Intubation, dose end: 14 week, group: systemic.
Series [14] has as its system rat. The conditions noted are these: Peri- and post-natal toxicity study (Segment III), wistar, Oral, Gavage/Intubation, dose end: 21 PND.
The subject of series [15] is mouse. To be noted: Combined chronic toxicity/carcinogenicity, b6c3f1, Oral, Gavage/Intubation, dose end: 2 year, group: systemic.
In series [16] the test system is rat. To be noted: Combined chronic toxicity/carcinogenicity; fischer; Oral; Gavage/Intubation; dose end: 2 year; group: systemic; systemic / pathology microscopic / kidney / hyperplasia + systemic / pathology microscopic / kidney / nephropathy + systemic / pathology ….
Series [17] concerns rat. The conditions noted are these: Subchronic oral toxicity in rodents, fischer, Gavage/Intubation, dose end: 14 week, group: systemic.
Series [18] deals with rat. The conditions noted are these: Prenatal developmental toxicity study, wistar, Oral, Gavage/Intubation, dose end: 15 GD.
The mark [19] stands for this setting: systemic / pathology gross / full gross necropsy / lymphoma malignant + systemic / in life observation / body weight / body weight gain.
The mark [20] stands for this setting: systemic / pathology gross / full gross necropsy / lymphoma malignant + systemic / in life observation / body weight / body weight gain + ….
Where [21] appears, read: systemic / in life observation / body weight / body weight + systemic / pathology microscopic / mammary gland / dilatation + systemic / ….
Where [22] appears, read: systemic / pathology microscopic / mammary gland / hyperplasia.
[23] abbreviates: systemic / clinical chemistry / alkaline phosphatase (alp/alk) / alkaline phosphatase (alp/alk) + systemic / organ weight / liver / absolute….
Where [24] appears, read: systemic / in life observation / clinical signs / skin ulceration.
[25] abbreviates: systemic / in life observation / clinical signs / skin ulceration + systemic / clinical chemistry / alkaline phosphatase (alp/alk) / ….
[26] abbreviates: group: offspring, developmental / offspring survival late / lactation index / lactation index + systemic / in life observation / body weight / offspring (pup….
The mark [27] stands for this setting: group: parental, systemic / in life observation / body weight / body weight gain + systemic / in life observation / food consumption / food consumption + ….
[28] abbreviates: systemic / pathology microscopic / kidney / pigmentation + systemic / pathology microscopic / liver / hypertrophy.
[29] abbreviates: systemic / pathology microscopic / kidney / pigmentation + systemic / pathology microscopic / liver / hypertrophy + systemic / pathology ….
Setting [30] is: group: developmental, developmental / developmental malformation / bone / incomplete ossification + developmental / developmental malformation / bone / irregular ….
The mark [31] stands for this setting: group: maternal, systemic / in life observation / body weight / body weight gain.
The mark [32] stands for this setting: reproductive / reproductive performance / estrous cycle / periodicity + systemic / clinical chemistry / corticosterone / corticosterone + ….
[33] abbreviates: systemic / clinical chemistry / corticosterone / corticosterone + systemic / in life observation / body weight / body weight gain.
Where [34] appears, read: systemic / organ weight / kidney / relative to body weight + systemic / organ weight / liver / absolute.
[35] abbreviates: group: developmental, developmental / developmental landmark / eye opening / eye opening + developmental / developmental landmark / pinna unfolding / pinna ….
Where [36] appears, read: group: maternal, reproductive / reproductive performance / dystocia / dystocia + reproductive / reproductive performance / fertility / fertility + ….
[37] abbreviates: group: offspring, systemic / in life observation / body weight / offspring (pup) weight.
Setting [38] is: group: parental, systemic / in life observation / body weight / body weight + systemic / in life observation / body weight / body weight gain + systemic / in….
Where [39] appears, read: systemic / pathology microscopic / liver / adenoma/carcinoma combined + systemic / pathology microscopic / liver / adenoma + systemic / ….
[40] abbreviates: systemic / organ weight / kidney / absolute + systemic / organ weight / kidney / relative to body weight + systemic / organ weight / liver….
[41] abbreviates: group: developmental, developmental / developmental malformation / bone / [other] + developmental / developmental malformation / bone / delayed ossification + ….
Setting [42] is: group: maternal, reproductive / reproductive performance / implantations / implantations + systemic / in life observation / body weight / body weight gain + ….

Some results are limits rather than exact numbers.

As a reminder, the LOAEL is the lowest tested level that showed an adverse finding. For orientation: NOAEL means the highest dose or exposure tested at which no adverse effect was seen. Turning to `[Ca+2].[N-]=C=[N-]` [Calcium cyanamide], in [1] (setting [19]), the LEL was determined as 75 mg/kg/day and the NEL was below 75 mg/kg/day. Besides, in [1] (setting [20]), the LOAEL was above 300 mg/kg/day and the NOAEL was at least 300 mg/kg/day. In addition, in [2] (setting [21]), the LOAEL is above 10 mg/kg/day and the NOAEL was at least 10 mg/kg/day. In addition, in series [2] (setting [22]), the LEL amounted to 5 mg/kg/day and the NEL is below 5 mg/kg/day.
In the case of `C#CCOC(=O)[C@@H](C)Oc1ccc(Oc2ncc(Cl)cc2F)cc1` [Clodinafop-propargyl mixt.], the LEL in series [3] is 11 mg/kg/day; in series [4] (setting [23]) it was 8.24 mg/kg/day; in series [5], 15.2 mg/kg/day; in [6] (setting [24]) it was 1.73 mg/kg/day; in series [7] (setting [26]), 31.7 mg/kg/day; in series [7] (setting [27]) it was 31.7 mg/kg/day. Further, the LEL in [8] (setting [28]) was determined as 0.324 mg/kg/day; in series [9] (setting [30]), 40 mg/kg/day; in series [9] (setting [31]), 5 mg/kg/day. Also, the LOAEL in series [3] worked out at 11 mg/kg/day; in series [4] (setting [23]) it was 8.24 mg/kg/day; in series [5] it was 15.2 mg/kg/day; in series [6] (setting [24]), 1.73 mg/kg/day; in [7] (setting [26]), 31.7 mg/kg/day; in [7] (setting [27]), 31.7 mg/kg/day. Further, the values for the LOAEL in series [8] (setting [28]), in series [9] (setting [30]) and in series [9] (setting [31]) were 0.324 mg/kg/day, 40 mg/kg/day and above 160 mg/kg/day, respectively. Moreover, the NEL in series [3] came to 1.1 mg/kg/day; in series [4] (systemic / hematology / erythrocyte (rbc) count differential / erythrocyte (rbc) + systemic / hematology / hemoglobin (hgb) / hemoglobin (…), 0.92 mg/kg/day; in series [5], 3.38 mg/kg/day; in [6] (setting [25]), 0.346 mg/kg/day; in series [7] (setting [26]) it was 3.21 mg/kg/day; in series [7] (setting [27]), 3.21 mg/kg/day. Besides, the NEL is 0.031 mg/kg/day in [8] (setting [29]), 5 mg/kg/day in series [9] (setting [30]) and below 5 mg/kg/day in [9] (setting [31]). Further, the NOAEL in series [3] is 1.1 mg/kg/day; in series [4] (setting [23]) it was 0.92 mg/kg/day; in [5], 3.38 mg/kg/day; in series [6] (setting [25]) it was 0.346 mg/kg/day; in series [7] (setting [26]) it was 3.21 mg/kg/day; in series [7] (setting [27]) it was 3.21 mg/kg/day. The NOAEL in series [8] (setting [29]) was 0.031 mg/kg/day; in series [9] (setting [30]), 5 mg/kg/day; in series [9] (setting [31]) it was at least 160 mg/kg/day.
With `C[C@]12C[C@H](O)[C@H]3[C@@H](CCC4=CC(=O)CC[C@@]43C)[C@@H]1CC[C@@H]2C(=O)CO` [Corticosterone], in series [10], the LEL amounted to 40 mg/kg/day, the LOAEL was above 40 mg/kg/day, the NEL is below 40 mg/kg/day and the NOAEL was at least 40 mg/kg/day. Moreover, in [11], the LEL was found to be 40 mg/kg/day, the LOAEL was above 40 mg/kg/day, the NEL was below 40 mg/kg/day and the no-observed-adverse-effect level (NOAEL) is at least 40 mg/kg/day. Further, in [12] (setting [32]), the lowest-observed-adverse-effect level (LOAEL) is above 40 mg/kg/day and the no-observed-adverse-effect level (NOAEL) was at least 40 mg/kg/day. Moreover, in [12] (setting [33]), the LEL was found to be 10 mg/kg/day and the NEL was below 10 mg/kg/day.
On to `C=CC(=C)CCC=C(C)C` [Myrcene], for which the LOAEL is 1000 mg/kg/day in series [13] (systemic / in life observation / body weight / body weight + systemic / in life observation / body weight / body weight gain); above 1500 mg/kg/day in [14] (setting [35]); above 1500 mg/kg/day in series [14] (setting [36]); above 1500 mg/kg/day in [14] (setting [37]); above 1500 mg/kg/day in series [14] (setting [38]); 500 mg/kg/day in series [15] (systemic / in life observation / body weight / body weight + systemic / pathology microscopic / liver / hypertrophy + systemic / pathology …). Further, the LOAEL was 250 mg/kg/day in series [16], 500 mg/kg/day in series [17] (systemic / organ weight / kidney / absolute + systemic / organ weight / kidney / relative to body weight + systemic / pathology microscopic…), above 1200 mg/kg/day in series [18] (setting [41]) and above 1200 mg/kg/day in [18] (setting [42]). The LEL was found to be 250 mg/kg/day in series [13] (setting [34]); 500 mg/kg/day in [14] (group: developmental, developmental / developmental malformation / general / [other]); 500 mg/kg/day in series [14] (group: maternal, reproductive / offspring survival early / litter viability other / litter viability); 500 mg/kg/day in series [14] (setting [37]); 1000 mg/kg/day in [14] (group: parental, systemic / in life observation / body weight / body weight gain + systemic / pathology microscopic / stomach / hyperkeratosis); 250 mg/kg/day in series [15] (setting [39]). Besides, the LEL came out at 250 mg/kg/day in series [16], 250 mg/kg/day in [17] (setting [40]), 1200 mg/kg/day in series [18] (setting [41]) and 1200 mg/kg/day in series [18] (setting [42]). The NEL was below 250 mg/kg/day in series [13] (setting [34]); 250 mg/kg/day in series [14] (setting [35]); 250 mg/kg/day in series [14] (group: maternal, reproductive / offspring survival early / dead fetuses / dead fetuses + reproductive / offspring survival early / litter viability other / …); 250 mg/kg/day in [14] (setting [37]); 500 mg/kg/day in series [14] (setting [38]); below 250 mg/kg/day in series [15] (setting [39]). Also, the NEL in [16] was below 250 mg/kg/day; in [17] (setting [40]) it was below 250 mg/kg/day; in [18] (setting [41]), 500 mg/kg/day; in [18] (setting [42]), 500 mg/kg/day. Further, the NOAEL in [13] (systemic / organ weight / liver / absolute + systemic / in life observation / body weight / body weight + systemic / in life observation / …) is 500 mg/kg/day; in series [14] (setting [35]) it was at least 1500 mg/kg/day; in series [14] (setting [36]), at least 1500 mg/kg/day; in series [14] (setting [37]) it was at least 1500 mg/kg/day; in series [14] (setting [38]), at least 1500 mg/kg/day; in series [15] (systemic / pathology microscopic / liver / adenoma/carcinoma combined + systemic / in life observation / body weight / body weight + …) it was 250 mg/kg/day. In addition, the NOAEL in [16] was below 250 mg/kg/day; in [17] (setting [40]) it was 250 mg/kg/day; in series [18] (setting [41]), at least 1200 mg/kg/day; in [18] (setting [42]) it was at least 1200 mg/kg/day.
